# Entries after “also recorded” stand apart in the source; their conditions may differ.
# Key:
# [1] = system: bronchoalveolar lavage fluid (BALf); test: Total protein (BCA) and TNF-α in lamb bronchoalveolar lavage fluid; format: in vivo
# From the text: ELISA and BCA assay methods. BCA assay: The lamb BAL fluid samples (10d and 90d terminal studies) were centrifuged to remove the cell pellets, and the supernatant was used to assess the total protein using the Pierce™ BCA Protein Assay Kits, which were read using a BioTek synergy H1 microplate reader (Fisher Scientific, Toronto, ON, Canada).
# ELISA: The serum and bronchoalveolar lavage (BAL) fluid samples were used to quantify cytokine and soluble CD163 (sCD163) concentrations. The ELISA experiment analysis used commercially available ELISA kits, which were quantified using a plate reader. The inventors used GraphPad Prism V. 10.4. All sheep (ovine) ELISA kits were used within the expiry dates. Ovine IL-1β(Cat #ELO-IL1β), and ovine IL-6 (Cat #ELO-IL6) ELISA kits were purchased from RayBiotech, Peachtree Corners, GA, USA, sheep IL-10 (Cat #E12817Sh-96) was purchased from Lifeome Biolabs, Oceanside, CA, sheep CD163 (cat #MBS9364870) was purchased from MyBioSource, Inc. San Diego, CA, and Pierce™ BCA Protein Assay Kit (Cat #23227) from Thermo Fischer Scientific, Rockford, IL.
# [2] = system: preterm lamb model of BPD; test: Neurobehavioral assessments (curiosity, socialization, learning and memory); format: in vivo
# From the text: Neurobehavioral assessments. The inventors adapted tests for curiosity, using novel objects of different colors and shapes; socialization, using a nonreflective (dull) surface versus a reflective surface (mirror); and learning and memory, using a maze with a reward.^20 These tests were adapted from other studies that assessed the neurobehavior of sheep.^20-25 Assessments were made over 2 weeks.
# Habituation (open-field for exploration; days 1 and 2) was used to familiarize the lambs with the test, rest rooms, and tender. Habituation was accomplished on days 1 and 2 by a 10-minute stay in the test room, a 30-minute rest period in the rest room, and another 10-minute stay in the test room. Habituation was repeated the next day.
# Tests were (1) curiosity, using novel objects; (2) socialization, using a non-reflective surface and a reflective surface; and (3) learning and memory (using a maze with a milk bottle reward). The tests were done on sequential days over two weeks. Tests were trials of 10-min each, with a 30-min rest period between trials. Each 10-min trial was video recorded, using the Noldus System (model EthoVision XT 17 with the Physiology Integration Module; Noldus Information Technology Inc., Leesburg, VA). The test room had tape on the floor that divided the floor into 9 zones for identification of movement direction and speed, inactivity, etc., in video playback. A ceiling camera recorded each test session. The camera was connected to a dedicated computer with the Noldus software to document lamb activity and time. The novel objects test required four trials on day 3. Trials 1 and 2 used two objects (brown and blue bowls) affixed to the floor. For trial 3, before the lamb was returned to the test room, the brown bowl was replaced with a novelx object (pink pitcher). For trial 4, before the lamb was returned to the test room, a new object (yellow ball) was added with the blue bowl and pink pitcher (3 objects). Analysis was the number of times and the time spent investigating each object.
# The socialization test required two trials each on days 4 and 5. Two metallic surfaces were attached to a wall, one with a non-reflective and the other with a reflective surface. Analysis was the number of times and the time spent investigating each surface.
# The following week, the learning and memory test required two trials on day 6. A maze made of solid metal panels was set up in the test room. A tender was in one corner of the maze, holding a bottle of milk, the reward for completing the maze. Once the tender was in place, the lamb entered the test room. Analysis was the time to reach the milk bottle reward.
# [3] = system: TLR4 and pathway-related cytokines, apoptosis, proliferation and permeability markers in lung tissue homogenates; test: Immunoblot and RT-PCR of lamb lung tissue homogenates; format: in vivo
# Protocol: For molecular analyses, the right caudal lobe was cut into 1 cm^3 pieces (˜1 g each), again using systematic, uniform, random sampling methods. The lung pieces were from peripheral tissue devoid of visceral pleura and central airways, vessels, and connective tissue. The pieces were snap-frozen in liquid nitrogen and stored at −80° C. Homogenates of frozen tissue pieces were used for quantitative real-time RT-PCR and immunoblot analyses. Expression of mRNA was normalized to GAPDH. For immunoblot analysis, cleaved caspase 3 was used (EnzoADI-AAP-113, Enzo Life Sciences, Inc., Farmingdale, NY), PCNA (ab2426, Abcam, Cambridge, MA), and VEGF-R2 (sc-393163, Santa Cruz Biotechnology, Dallas, TX) proteins. Positive controls for immunoblot were the respective native proteins. Protein abundance was normalized, using Memcode (P124585, Fisher Scientific, Pittsburgh, PA).
# [4] = system: cord blood mononuclear cells (CBMCs); test: LPS tolerance / pretreatment in CBMCs; format: cell-based, human
# Protocol: Cells were dosed with AVR-48 [100 μM], LPS [50 ng/mL], and in combination show (FIG. 16A). […] N=3, One-way ANOVA was used for analysis. […] N=3, Two-way ANOVA.
# N=3 *p<0.05, **p<0.01, ***p<0.001. One-way ANOVA and t tests.
# mice = test: AVR-48 pretreatment of mice followed by LPS, immune cell profile; format: in vivo, mouse; conditions: mice pretreated with AVR-48, in the presence of LPS
# From the text: AVR-48 stimulated innate and adaptive immune response via (FIG. 25E) TNF-α increase and (FIG. 25F) CD3+, (FIG. 25G) CD4+, and (FIG. 25H) CD8+ T-cells, a necessary step in adaptive response and immune resolution. *p<0.05, **p<0.01, ***p<0.001; N=4, One-way ANOVA was used for analysis.
# [5] = 2 moC PNA (d90), FPT lambs vs FPT vehicle
# [6] = late-stage study, FPT lambs vs FPT vehicle
structure (smiles),measurement,setting,value
CC(=O)NC1C(Oc2ccc([N+](=O)[O-])cc2)OC(CO)C(O)C1O (centres unmarked) [AVR-48],total protein concentration in BALf,"[1]; 10 days, PT lambs vs vehicle",decreased total protein concentration
same,total protein concentration in BALf,"[1]; 90 days, FPT lambs",no difference was observed
same,TNF-α concentration in BALf,[1]; early and late-stage studies,No significant change
same,"curiosity and socialization outcomes (time at novel object, dull surface, mirror)","[2]; 1 moC PNA (day of life 60), among groups",No differences were detected
same,time at novel object (curiosity test),"[2]; 2 moC PNA (d90), FPT lambs 3.0 mg/kg/dose vs FPT vehicle",significantly less time; also recorded: significantly shorter
same,time at the dull surface (socialization test),[2]; [5],less time (not significant); also recorded: significantly shorter
same,"time at the mirror (reflective surface, socialization test)",[2]; [5],more time (not significant); also recorded: significantly longer
same,time to navigate the maze to reach the milk bottle reward (learning and memory test),[2]; [5],significantly faster; also recorded: less (not significant)
same,P53 in lung,"[3]; 90-day study, vs FPT vehicle lamb lungs",higher
same,cleaved caspase-3 protein levels in lung,"[3]; DOL10, PT lambs vs vehicle",significantly lower level
same,"mRNA levels for p53, caspase-3, c-Myc, and TGF-β in lung","[3]; DOL10, PT lambs vs vehicle",No significant difference
same,relative mRNA levels of TLR4 and cytokines in lung,"[3]; PT lambs vs control, FPT and term lambs",No differences were found
same,protein concentration of TLR4 and pathway-related cytokines in lung tissue,[3]; early-stage study,no differences were detected
same,VEGF-A protein level in lung,"[3]; early-stage study, 10d, PT group vs vehicle",significant decrease
same,TLR4 protein concentration (relative protein level) in lung tissue,"[3]; late-stage study (DOL90), FPT AVR-48 lambs",0.007±0.004
same,TLR4 protein concentration in lung tissue vs vehicle,"[3]; late-stage study (DOL90), FPT lambs vs FPT vehicle",significantly lower
same,"mRNA expression and protein level for VEGF-A, VEGFR2, and SP-B in lung","[3]; late-stage study, 90d, FPT AVR-48 vs FPT vehicle",no significant difference
same,IL-6 protein in lung tissue,[3]; [6],appeared lower (not significant)
same,IL-10 protein concentration in lung tissue,[3]; [6],appeared higher (not significant)
same,TNF-α protein in lung tissue,[3]; [6],appeared lower (not significant)
same,IL-1β profile,[4]; CBMC pre-treated with compound 100 μM for 48 h followed by LPS 50 ng/mL,inhibited IL-1β profile
same,TNF-α in LPS-tolerant CBMCs,"[4]; low dose LPS 48 h then second (high dose) LPS, with addition of compound",increased production of TNF-α
same,TNF-α level,"[4]; pretreatment 48 h followed by LPS 24 h, vs control",significant higher level
same,CD3+ T-cells,mice,stimulated
same,CD4+ T-cells,mice,stimulated
same,CD8+ T-cells,mice,stimulated
same,M1 macrophages,mice,increased
same,Mint (intermediate) macrophages,mice,increased
same,TNF-α,mice,increase
